This passage reports IC50 and GI50 results from patent US20230027026A1, “FUSED PYRIMIDINE COMPOUNDS, COMPOSITIONS AND MEDICINAL APPLICATIONS THEREOF” (JUBILANT BIOSYS LIMITED, priority 2019, published 2023).

Where a name gives a salt, the structure may show the parent alone. Bounds are passed on as bounds.

Type in all cases: cell-based
The test system of one assay is A431 cells. Briefly: Cellular proliferation (Alamar Blue) assay, A431. As to conditions: Homo sapiens, A-431; A431 cells, 72 hr, Alamar Blue; read-out: A431 IC50. An outline of the steps:
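Seventy-two-hour growth assay with 3-fold compound titration (final 10–0.0005 μM) and Alamar Blue fluorescence end point, ex 540/em 590 nm.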

Assay [1] addresses EGFR (A767_dupASV) expressing Ba/F3 stable cell line (Homo sapiens, UniProt P00533, DUP767-769, cells depend on it). Briefly: Cellular proliferation (Alamar Blue) assay, EGFR A767_dupASV Ba/F3. The following applies: EGFR A767_dupASV Ba/F3, 72 hr, read-out: A767 IC50. The essentials: (§1)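 Alamar Blue proliferation read-out (3 h incubation, ex 540/em 590 nm) after 72 h compound exposure at 37 °C, 5% CO2, using final concentrations of 10-0.0005 μM in 3-fold steps. Cells: engineered Ba/F3 lines at 15,000 per well in RPMI/10% FBS, and BT-474.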
In general terms: Resazurin is reduced to fluorescent resorufin, in cell work by metabolically active cells.

In assay [2] the target is EGFR(D770_N771insSVD) expressing Ba/F3 stable cell line (Homo sapiens, UniProt P00533, DUP768-770, cells depend on it). Briefly: Cellular proliferation (Alamar Blue) assay, EGFR D770_N771insSVD Ba/F3. The following applies: EGFR D770_N771insSVD Ba/F3, 72 hr, read-out: D770 IC50. An outline of the steps: as §1
Chain of EGFR(D770_N771insSVD) expressing Ba/F3 stable cell line (P00533 with tags, fused parts or gaps DUP768-770): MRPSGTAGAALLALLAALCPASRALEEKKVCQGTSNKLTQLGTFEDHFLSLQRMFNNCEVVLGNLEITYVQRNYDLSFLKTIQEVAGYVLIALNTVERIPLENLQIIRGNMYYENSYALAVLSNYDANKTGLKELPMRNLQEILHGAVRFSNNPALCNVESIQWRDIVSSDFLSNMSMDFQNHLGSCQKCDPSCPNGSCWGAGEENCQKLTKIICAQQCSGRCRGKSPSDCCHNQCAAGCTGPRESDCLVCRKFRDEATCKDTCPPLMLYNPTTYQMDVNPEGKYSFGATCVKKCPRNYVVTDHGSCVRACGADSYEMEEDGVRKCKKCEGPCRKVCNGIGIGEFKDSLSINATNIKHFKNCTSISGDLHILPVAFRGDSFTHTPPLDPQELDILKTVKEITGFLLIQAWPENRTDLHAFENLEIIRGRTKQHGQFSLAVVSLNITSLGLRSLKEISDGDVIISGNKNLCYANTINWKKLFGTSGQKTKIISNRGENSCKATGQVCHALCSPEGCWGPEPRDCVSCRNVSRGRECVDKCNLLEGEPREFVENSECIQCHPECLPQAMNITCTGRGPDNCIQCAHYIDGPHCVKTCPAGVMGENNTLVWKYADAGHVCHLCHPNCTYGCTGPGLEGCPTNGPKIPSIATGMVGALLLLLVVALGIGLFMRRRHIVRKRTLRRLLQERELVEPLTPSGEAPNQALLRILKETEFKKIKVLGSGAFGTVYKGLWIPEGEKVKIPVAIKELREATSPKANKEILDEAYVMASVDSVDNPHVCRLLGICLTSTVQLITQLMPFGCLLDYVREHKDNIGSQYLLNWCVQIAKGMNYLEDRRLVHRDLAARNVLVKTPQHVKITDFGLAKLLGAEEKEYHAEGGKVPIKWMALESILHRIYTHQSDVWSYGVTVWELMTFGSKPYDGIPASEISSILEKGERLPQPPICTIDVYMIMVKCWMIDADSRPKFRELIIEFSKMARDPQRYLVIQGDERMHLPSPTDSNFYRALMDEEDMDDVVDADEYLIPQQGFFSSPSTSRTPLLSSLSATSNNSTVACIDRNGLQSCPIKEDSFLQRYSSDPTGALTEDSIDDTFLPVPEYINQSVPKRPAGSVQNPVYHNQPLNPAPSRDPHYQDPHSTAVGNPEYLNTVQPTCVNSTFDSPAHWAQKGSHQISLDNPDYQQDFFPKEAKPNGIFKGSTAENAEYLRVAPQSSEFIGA
Assay [3] has as its target HER2 (A775_G776insYVMA) expressing Ba/F3 stable cell line (Homo sapiens, UniProt P04626, DUP772-775, cells depend on it). As to the kind of experiment: Cellular proliferation (Alamar Blue) assay, HER2 YVMA Ba/F3. As to conditions: HER2 A775_G776insYVMA Ba/F3, 72 hr, read-out: YVMA IC50. How it is done:
Example 3: Cellular Proliferation (Alamar Blue) Assays
• 1. EGFR(D770_N771insSVD) expressing Ba/F3 stable cell line • 2. EGFR (A767_dupASV) expressing Ba/F3 stable cell line • 3. A431 cells • 4. BTER2 (A775_G776insYVMA) expressing Ba/F3 stable cell line • 5. BTER2 (WT) expressing Ba/F3 stable cell line • 6. BT-474 cells
• 1. Seed cells at 5000 for A431 and 15,000 cells for Ba/F3 in 100 μL/well in complete media (for A431: DMEM with 10% FBS and for Ba/F3 cells: RPMI with 10% FBS) in 96-well tissue culture plate. Leave outer wells without cells for background measurements. Incubate at 37 degree Celsius in 5% CO2 humidified incubator for 16-18 hours. • 2. Add 0.025 ml of 5× concentration compound dilution or DMSO control. Final compound concentration range is 10-0.0005 μM prepared in 3-fold serial dilutions. Incubate for 72 hr at 37 degree Celsius in […] humidified incubator. • 3. Add 0.0125 mL Alamar Blue™ reagent to each well with multi-channel pipette and tap gently on each side of the plate to mix. Incubate for 3 hours at 37 degree Celsius in […] humidified incubator. • 4. Read plates on fluorescence reader (Tecan Spark Control, Device: Spark, Serial #: 1801006040) at 540 nm excitation, 590 nm emission wavelength. • 5. Data analysis was performed using XLfit 5.5.0.5.

Chain of EGFR (A767_dupASV) expressing Ba/F3 stable cell line (P00533 with tags, fused parts or gaps DUP767-769): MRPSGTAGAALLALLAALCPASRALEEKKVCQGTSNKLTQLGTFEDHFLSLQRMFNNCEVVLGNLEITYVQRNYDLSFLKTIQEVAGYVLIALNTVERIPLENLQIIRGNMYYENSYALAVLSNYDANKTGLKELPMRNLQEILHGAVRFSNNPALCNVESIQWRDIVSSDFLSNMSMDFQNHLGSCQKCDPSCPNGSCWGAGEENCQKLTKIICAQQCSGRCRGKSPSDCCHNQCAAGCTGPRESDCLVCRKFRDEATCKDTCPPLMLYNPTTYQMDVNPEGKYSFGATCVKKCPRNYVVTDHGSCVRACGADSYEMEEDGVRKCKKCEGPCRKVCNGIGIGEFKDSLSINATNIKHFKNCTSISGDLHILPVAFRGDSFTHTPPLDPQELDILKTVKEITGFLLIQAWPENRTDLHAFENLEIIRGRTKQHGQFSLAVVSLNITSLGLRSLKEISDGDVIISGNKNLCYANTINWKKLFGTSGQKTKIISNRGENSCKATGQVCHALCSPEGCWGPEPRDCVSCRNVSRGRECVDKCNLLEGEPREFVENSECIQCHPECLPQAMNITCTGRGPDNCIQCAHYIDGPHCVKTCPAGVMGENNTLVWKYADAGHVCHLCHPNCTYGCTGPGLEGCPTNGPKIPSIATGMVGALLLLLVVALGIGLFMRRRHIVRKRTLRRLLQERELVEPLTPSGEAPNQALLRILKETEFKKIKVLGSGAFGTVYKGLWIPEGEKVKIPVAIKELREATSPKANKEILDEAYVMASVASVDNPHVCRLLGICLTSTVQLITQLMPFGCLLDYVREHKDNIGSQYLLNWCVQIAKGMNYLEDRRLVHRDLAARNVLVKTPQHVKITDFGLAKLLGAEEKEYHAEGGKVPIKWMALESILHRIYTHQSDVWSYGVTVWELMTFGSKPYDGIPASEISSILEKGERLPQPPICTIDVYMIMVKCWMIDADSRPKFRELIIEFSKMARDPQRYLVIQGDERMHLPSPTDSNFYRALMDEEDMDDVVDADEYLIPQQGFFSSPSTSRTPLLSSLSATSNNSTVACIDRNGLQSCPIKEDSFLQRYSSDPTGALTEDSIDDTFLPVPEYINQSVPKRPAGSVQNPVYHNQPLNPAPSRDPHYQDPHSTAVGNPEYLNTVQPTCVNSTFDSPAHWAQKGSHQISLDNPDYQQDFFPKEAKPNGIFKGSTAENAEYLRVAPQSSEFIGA
Chain of HER2 (A775_G776insYVMA) expressing Ba/F3 stable cell line (P04626 with tags, fused parts or gaps DUP772-775): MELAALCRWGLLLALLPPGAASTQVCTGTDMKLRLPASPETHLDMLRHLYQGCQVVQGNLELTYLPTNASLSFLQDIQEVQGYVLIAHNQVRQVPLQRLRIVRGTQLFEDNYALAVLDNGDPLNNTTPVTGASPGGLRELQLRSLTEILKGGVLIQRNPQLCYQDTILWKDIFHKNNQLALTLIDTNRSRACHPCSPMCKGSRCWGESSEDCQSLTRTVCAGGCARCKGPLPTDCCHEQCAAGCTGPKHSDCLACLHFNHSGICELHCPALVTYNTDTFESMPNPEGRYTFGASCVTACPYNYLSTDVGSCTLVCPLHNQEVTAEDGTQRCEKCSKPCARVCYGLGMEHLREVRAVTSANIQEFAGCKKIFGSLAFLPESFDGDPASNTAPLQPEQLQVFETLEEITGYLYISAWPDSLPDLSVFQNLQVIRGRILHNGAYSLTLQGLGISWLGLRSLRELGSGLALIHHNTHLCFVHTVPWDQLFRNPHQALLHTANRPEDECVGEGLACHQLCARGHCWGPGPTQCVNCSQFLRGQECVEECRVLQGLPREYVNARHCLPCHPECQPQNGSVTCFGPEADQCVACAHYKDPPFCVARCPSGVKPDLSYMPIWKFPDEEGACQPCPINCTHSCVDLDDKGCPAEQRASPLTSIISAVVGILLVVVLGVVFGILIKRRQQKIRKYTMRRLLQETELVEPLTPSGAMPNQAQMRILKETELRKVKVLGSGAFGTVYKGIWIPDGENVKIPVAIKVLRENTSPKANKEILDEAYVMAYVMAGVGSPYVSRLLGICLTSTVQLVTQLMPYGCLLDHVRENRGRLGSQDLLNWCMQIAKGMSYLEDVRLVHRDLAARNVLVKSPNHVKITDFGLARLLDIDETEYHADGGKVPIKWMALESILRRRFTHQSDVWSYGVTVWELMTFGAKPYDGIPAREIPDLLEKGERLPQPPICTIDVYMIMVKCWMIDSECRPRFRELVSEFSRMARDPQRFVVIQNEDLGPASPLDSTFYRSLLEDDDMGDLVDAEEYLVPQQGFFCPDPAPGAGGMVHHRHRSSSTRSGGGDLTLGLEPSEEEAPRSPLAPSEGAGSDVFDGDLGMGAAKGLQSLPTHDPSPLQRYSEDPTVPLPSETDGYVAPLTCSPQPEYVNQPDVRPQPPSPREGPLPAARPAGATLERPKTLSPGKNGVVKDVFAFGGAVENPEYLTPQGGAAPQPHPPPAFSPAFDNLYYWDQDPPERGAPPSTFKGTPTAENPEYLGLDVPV

As usually defined, the IC50 is the point on the concentration scale where inhibition reaches its midpoint. Take `CN(C)C/C=C/C(=O)Nc1cccc(N2C(=O)N(Cc3ccccc3)Cc3cnc(Nc4ccc(N5CCN(C)CC5)nc4)nc32)c1` [Compound 66, (E)-N-(3-(3-benzyl-7-((6-(4-methylpiperazin-1-yl)pyridin-3-yl)amino)-2-oxo-3,4-dihydropyrimido[4,5-d]pyrimidin-1(2H)-yl)phenyl)-4-(dimethylamino)but-2-enamide]: in the assay on A431 cells, the half-inhibitory concentration (IC50) was at least 10000 nM. The GI50 in assay [1] came to 3280 nM; in assay [2] it was 3190 nM; in assay [3], 1760 nM.
Taken in the same sequence, the figures for `Cn1cc(Nc2ncc3c(n2)N(c2cccc(NC(=O)/C=C/CF)c2)C(=O)N(Cc2ccccc2)C3)c(F)n1` [Compound 88, (E)-N-(3-(3-benzyl-7-((3-fluoro-1-methyl-1H-pyrazol-4-yl)amino)-2-oxo-3,4-dihydropyrimido[4,5-d]pyrimidin-1(2H)-yl)phenyl)-4-fluorobut-2-enamide] were above 10000 nM, 22 nM, 40 nM and 101 nM.
In the same order, the values of `C=CC(=O)Nc1cccc(N2C(=O)N(c3ccccc3)Cc3cnc(Nc4cn(C5CCC(O)CC5)nc4Cl)nc32)c1` (stereo not shown) [Compound 129, N-(3-(7-((3-chloro-1-(4-hydroxycyclohexyl)-1H-pyrazol-4-yl)amino)-2-oxo-3-phenyl-3,4-dihydropyrimido[4,5-d]pyrimidin-1(2H)-yl)phenyl)acrylamide trifluoroacetate salt] are at least 10000 nM, 157 nM, 333 nM and 312 nM.
`COC/C=C/C(=O)Nc1cccc(N2C(=O)N(Cc3ccccc3)Cc3cnc(Nc4cn(C)nc4F)nc32)c1` [Compound 83, (E)-N-(3-(3-benzyl-7-((3-fluoro-1-methyl-1H-pyrazol-4-yl)amino)-2-oxo-3,4-dihydropyrimido[4,5-d]pyrimidin-1(2H)-yl)phenyl)-4-methoxybut-2-enamide]: the 50% inhibitory concentration (IC50) in the assay with A431 cells was at least 10000 nM. In addition, the figures for the GI50 in assay [1], in assay [2] and in assay [3] were 1010 nM, 992 nM and 740 nM, respectively.
Consider `C=CC(=O)Nc1cccc(N2C(=O)N(c3ccccc3)Cc3cnc(Nc4cnn(C5CCC(O)CC5)c4)nc32)c1` (stereo not shown) [Compound 108, N-(3-(7-((1-(4-hydroxycyclohexyl)-1H-pyrazol-4-yl)amino)-2-oxo-3-phenyl-3,4-dihydropyrimido[4,5-d]pyrimidin-1(2H)-yl)phenyl)acrylamide], for which the IC50 in the assay on A431 cells was at least 10000 nM. Further, the figures for the GI50 in assay [1], in assay [2] and in assay [3] were 912 nM, 634 nM and 2020 nM, respectively.
Taken in the same sequence, the figures for `CN(C)C/C=C/C(=O)Nc1cccc(N2C(=O)N(c3ccccc3)Cc3cnc(Nc4cnn(C5CCC(O)CC5)c4)nc32)c1` (stereo not shown) [Compound 107, (E)-4-(dimethylamino)-N-(3-(7-((1-(4-hydroxycyclohexyl)-1H-pyrazol-4-yl)amino)-2-oxo-3-phenyl-3,4-dihydropyrimido[4,5-d]pyrimidin-1(2H)-yl)phenyl)but-2-enamide] were at least 10000 nM, at least 10000 nM, at least 10000 nM and at least 10000 nM.
Taken in the same sequence, the figures for `C=CC(=O)Nc1cccc(N2C(=O)N(c3ccccc3)Cc3cnc(Nc4cn(C5COC5)nc4Cl)nc32)c1` [Compound 136, N-(3-(7-((3-chloro-1-(oxetan-3-yl)-1H-pyrazol-4-yl)amino)-2-oxo-3-phenyl-3,4-dihydropyrimido[4,5-d]pyrimidin-1(2H)-yl)phenyl)acrylamide] were above 10000 nM, 15 nM, 29 nM and 63 nM.
Consider `COC/C=C/C(=O)Nc1cccc(N2C(=O)N(c3ccccc3)Cc3cnc(Nc4cn(C)nc4Cl)nc32)c1` [Compound 119, (E)-N-(3-(7-((3-chloro-1-methyl-1H-pyrazol-4-yl)amino)-2-oxo-3-phenyl-3,4-dihydropyrimido[4,5-d]pyrimidin-1(2H)-yl)phenyl)-4-methoxybut-2-enamide], for which, in the assay on A431 cells, the IC50 was at least 10000 nM. Moreover, the GI50 in assay [1] stood at 98 nM; in assay [2], 140 nM; in assay [3] it was 144 nM.
In the same order, the values of `CN(C)C/C=C/C(=O)Nc1cccc(N2C(=O)N(c3ccccc3)Cc3cnc(Nc4cccnc4F)nc32)c1` [Compound 114, (E)-4-(dimethylamino)-N-(3-(7-((2-fluoropyridin-3-yl)amino)-2-oxo-3-phenyl-3,4-dihydropyrimido[4,5-d]pyrimidin-1(2H)-yl)phenyl)but-2-enamide] are at least 10000 nM, 164 nM, 1090 nM and 1150 nM.
Taken in the same sequence, the figures for `C/C=C/C(=O)Nc1cccc(N2C(=O)N(c3ccccc3)Cc3cnc(Nc4cn(C)nc4Cl)nc32)c1` [Compound 120, (E)-N-(3-(7-((3-chloro-1-methyl-1H-pyrazol-4-yl)amino)-2-oxo-3-phenyl-3,4-dihydropyrimido[4,5-d]pyrimidin-1(2H)-yl)phenyl)but-2-enamide] were at least 10000 nM, 107 nM, 183 nM and 158 nM.
With `Cn1cc(Nc2ncc3c(n2)N(c2cccc(NC(=O)/C=C/CN4CCCCC4)c2)C(=O)N(Cc2ccccc2)C3)c(Cl)n1` [Compound 70, (E)-N-(3-(3-benzyl-7-((3-chloro-1-methyl-1H-pyrazol-4-yl)amino)-2-oxo-3,4-dihydropyrimido[4,5-d]pyrimidin-1(2H)-yl)phenyl)-4-(piperidin-1-yl)but-2-enamide], the IC50 in the assay on A431 cells was at least 10000 nM. Besides, the GI50 in assay [1] came out at 42 nM; in assay [2] it was 72 nM; in assay [3] it was 38 nM.
In the same order, the values of `C=CC(=O)Nc1cccc(N2C(=O)N(c3ccccc3)Cc3cnc(Nc4cccnc4F)nc32)c1` [Compound 115, N-(3-(7-((2-fluoropyridin-3-yl)amino)-2-oxo-3-phenyl-3,4-dihydropyrimido[4,5-d]pyrimidin-1(2H)-yl)phenyl)acrylamide] are at least 10000 nM, 8 nM, 28 nM and 188 nM.
With `Cn1cc(Nc2ncc3c(n2)N(c2cccc(NC(=O)/C=C/CF)c2)C(=O)N(c2ccccc2)C3)c(Cl)n1` [Compound 117, (E)-N-(3-(7-((3-chloro-1-methyl-1H-pyrazol-4-yl)amino)-2-oxo-3-phenyl-3,4-dihydropyrimido[4,5-d]pyrimidin-1(2H)-yl)phenyl)-4-fluorobut-2-enamide], the concentration for half-maximal inhibition (IC50) with A431 cells is at least 10000 nM. Further, the values for the GI50 in assay [1], in assay [2] and in assay [3] were 35 nM, 50 nM and 75 nM, respectively.
In the same order, the values of `C=CC(=O)Nc1cccc(N2C(=O)N(Cc3ccccc3)Cc3cnc(Nc4cn(C)nc4Cl)nc32)c1` [Compound 73, N-(3-(3-benzyl-7-((3-chloro-1-methyl-1H-pyrazol-4-yl)amino)-2-oxo-3,4-dihydropyrimido[4,5-d]pyrimidin-1(2H)-yl)phenyl)acrylamide] are at least 10000 nM, 4 nM, 20 nM and 49 nM.
As for `C=CC(=O)Nc1cccc(N2C(=O)N(c3ccccc3)Cc3cnc(Nc4cn(C)nc4F)nc32)c1` [Compound 113, N-(3-(7-((3-fluoro-1-methyl-1H-pyrazol-4-yl)amino)-2-oxo-3-phenyl-3,4-dihydropyrimido[4,5-d]pyrimidin-1(2H)-yl)phenyl)acrylamide], in the assay with A431 cells, the half-maximal inhibitory concentration (IC50) was at least 10000 nM. Further, the GI50 stood at 4 nM in assay [1], 17 nM in assay [2] and 68 nM in assay [3].
In the same order, the values of `C=C(C)C(=O)Nc1cccc(N2C(=O)N(c3ccccc3)Cc3cnc(Nc4cn(C)nc4Cl)nc32)c1` [Compound 121, N-(3-(7-((3-chloro-1-methyl-1H-pyrazol-4-yl)amino)-2-oxo-3-phenyl-3,4-dihydropyrimido[4,5-d]pyrimidin-1(2H)-yl)phenyl)methacrylamide] are at least 10000 nM, 8600 nM, at least 10000 nM and 883 nM.
